Reference: ChEMBL document CHEMBL3396992, “Synthesis and biological evaluation of pyrazolylthiazole carboxylic acids as potent anti-inflammatory-antimicrobial agents” (2015)
Values after ≈ are worked out from the molar mass of the structure shown. Active and inactive are the calls of the source. The calls are words filed in the database; no cut-off is given here.

How the values were obtained:
Staphylococcus aureus [1] = experiment: Antimicrobial activity against Staphylococcus aureus MTCC 96 assessed as growth inhibition at 4 mg/ml after 24 hrs by agar well diffusion method; assay type: functional; details: for zone of inhibition at 4000 µg/mL: MTCC 96, 24 h, read-out: DIZ
Bacillus subtilis [2] = experiment: Antimicrobial activity against Bacillus subtilis MTCC 121 assessed as growth inhibition at 4 mg/ml after 24 hrs by agar well diffusion method; assay type: functional; details: MTCC 121, 24 h, read-out: DIZ
Rattus norvegicus [3] = experiment: Antiinflammatory activity against carrageenan-induced paw edema male Wistar albino rat assessed as edema volume at 50 mg/kg, po administered 30 mins prior to carrageenan-challenge measured after 1 hr (reference value: 1.11 +/- 0.12 mL); assay type: functional
Saccharomyces cerevisiae [4] = experiment: Antimicrobial activity against Saccharomyces cerevisiae MTCC 170 assessed as growth inhibition after 24 hrs by agar well diffusion method; assay type: functional
Saccharomyces cerevisiae [5] = experiment: Antimicrobial activity against Saccharomyces cerevisiae MTCC 170 assessed as growth inhibition at 4 mg/ml after 24 hrs by agar well diffusion method; assay type: functional; details: for zone of inhibition at 4000 µg/mL: MTCC 170, 24 h, read-out: DIZ
Rattus norvegicus [6] = experiment: Antiinflammatory activity against carrageenan-induced paw edema male Wistar albino rat assessed as edema volume at 50 mg/kg, ip administered 30 mins prior to carrageenan-challenge measured after 3 hrs (reference value: 1.73 +/- 0.09 mL); assay type: functional; details: route intraperitoneal
Rattus norvegicus [7] = experiment: Antiinflammatory activity against carrageenan-induced paw edema male Wistar albino rat at 50 mg/kg, ip administered 30 mins prior to carrageenan-challenge measured after 2 hrs relative to control; assay type: functional; details: route intraperitoneal
Rattus norvegicus [8] = experiment: Antiinflammatory activity against carrageenan-induced paw edema male Wistar albino rat at 50 mg/kg, ip administered 30 mins prior to carrageenan-challenge measured after 3 hrs relative to control; assay type: functional; details: route intraperitoneal
Escherichia coli = experiment: Antimicrobial activity against Escherichia coli MTCC 1652 assessed as growth inhibition at 4 mg/ml after 24 hrs by agar well diffusion method; assay type: functional, organism-based
Rattus norvegicus [9] = experiment: Antiinflammatory activity against carrageenan-induced paw edema male Wistar albino rat at 50 mg/kg, ip administered 30 mins prior to carrageenan-challenge measured after 4 hrs relative to control; assay type: functional; details: route intraperitoneal
Rattus norvegicus [10] = experiment: Antiinflammatory activity against carrageenan-induced paw edema male Wistar albino rat at 50 mg/kg, ip administered 30 mins prior to carrageenan-challenge measured after 1 hr relative to control; assay type: functional; details: route intraperitoneal
Rattus norvegicus [11] = experiment: Antiinflammatory activity against carrageenan-induced paw edema male Wistar albino rat assessed as edema volume at 50 mg/kg, ip administered 30 mins prior to carrageenan-challenge measured after 2 hrs (reference value: 1.21 +/- 0.16 mL); assay type: functional; details: route intraperitoneal
Rattus norvegicus [12] = experiment: Antiinflammatory activity against carrageenan-induced paw edema male Wistar albino rat assessed as edema volume at 50 mg/kg, ip administered 30 mins prior to carrageenan-challenge measured after 4 hrs (reference value: 1.88 +/- 0.20 mL); assay type: functional; details: route intraperitoneal
Bacillus subtilis [13] = experiment: Antimicrobial activity against Bacillus subtilis MTCC 121 assessed as growth inhibition after 24 hrs by agar well diffusion method; assay type: functional; details: MTCC 121, 24 h
Staphylococcus aureus [14] = experiment: Antimicrobial activity against Staphylococcus aureus MTCC 96 assessed as growth inhibition after 24 hrs by agar well diffusion method; assay type: functional
Pseudomonas aeruginosa = details: MTCC 741, 4 mg/ml
Description: Antimicrobial activity against Pseudomonas aeruginosa MTCC 741 assessed as growth inhibition at 4 mg/ml after 24 hrs by agar well diffusion method

Candida albicans [15] = experiment: Antimicrobial activity against Candida albicans MTCC 3017 assessed as growth inhibition after 24 hrs by agar well diffusion method; assay type: functional; details: MTCC 3017, 24 h
Candida albicans [16] = experiment: Antimicrobial activity against Candida albicans MTCC 3017 assessed as growth inhibition at 4 mg/ml after 24 hrs by agar well diffusion method; assay type: functional; details: MTCC 3017, 24 h, read-out: DIZ

| Structure (SMILES) | zone of inhibition at 4000 µg/mL (Staphylococcus aureus [1]) | zone of inhibition at 4000 µg/mL (Bacillus subtilis [2]) | Activity (Rattus norvegicus [3]) | MIC (Saccharomyces cerevisiae [4]; MTCC 170, 24 h) | zone of inhibition at 4000 µg/mL (Saccharomyces cerevisiae [5]) | Activity (Rattus norvegicus [6]) | Activity (Rattus norvegicus [7]) | Activity (Rattus norvegicus [8]) | diameter of the inhibition zone (DIZ) (Escherichia coli) | Activity (Rattus norvegicus [9]) | Activity (Rattus norvegicus [10]) | Activity (Rattus norvegicus [11]) | Activity (Rattus norvegicus [12]) | MIC (Bacillus subtilis [13]) | MIC (Staphylococcus aureus [14]; MTCC 96, 24 h) | DIZ (Pseudomonas aeruginosa) | MIC (Candida albicans [15]) | zone of inhibition at 4000 µg/mL (Candida albicans [16]) | other results |
| --- | --- | --- | --- | --- | --- | --- | --- | --- | --- | --- | --- | --- | --- | --- | --- | --- | --- | --- | --- |
| O=C(O)c1sc(-c2cn(-c3ccccc3)nc2-c2ccc(F)cc2)nc1-c1ccc(F)cc1 | 15.3 mm | 17.6 mm | 0.23 mL | 25 µg/mL (≈ 54.4 µM) | 17.6 mm | 0.61 mL | 52.89% | 64.73% | inactive | 75% | 79.27% | 0.57 mL | 0.47 mL | 50 µg/mL (≈ 109 µM) | 50 µg/mL (≈ 109 µM) | inactive | 25 µg/mL (≈ 54.4 µM) | 19.6 mm | – |
| COc1ccc(-c2nn(-c3ccccc3)cc2-c2nc(-c3ccccc3)c(C(=O)O)s2)cc1 | 21.6 mm | 18.6 mm | 0.2 mL | 50 µg/mL (≈ 110 µM) | 16 mm | 0.21 mL | 86.77% | 87.86% | inactive | 87.76% | 81.98% | 0.16 mL | 0.23 mL | 25 µg/mL (≈ 55.1 µM) | 25 µg/mL (≈ 55.1 µM) | inactive | 50 µg/mL (≈ 110 µM) | 16.3 mm | – |
| CCOC(=O)c1sc(-c2cn(-c3ccccc3)nc2-c2ccc(OC)cc2)nc1-c1ccc(Cl)cc1 | – | 14.3 mm | 0.15 mL | – | – | 0.38 mL | 68.59% | 78.03% | inactive | 71.8% | 86.48% | 0.38 mL | 0.53 mL | 50 µg/mL (≈ 96.9 µM) | – | inactive | 50 µg/mL (≈ 96.9 µM) | 14.3 mm | diameter of the inhibition zone (DIZ) (Staphylococcus aureus [1]): inactive; MIC (Saccharomyces cerevisiae [4]): inactive; diameter of the inhibition zone (DIZ) (Saccharomyces cerevisiae [5]): inactive; MIC (Staphylococcus aureus [14]): inactive |
| O=C(O)c1sc(-c2cn(-c3ccccc3)nc2-c2ccc(Cl)cc2)nc1-c1ccccc1 | 22.6 mm | 22.6 mm | 0.32 mL | 6.25 µg/mL (≈ 13.6 µM) | 26.6 mm | 0.69 mL | 61.98% | 60.11% | inactive | 71.27% | 71.17% | 0.46 mL | 0.54 mL | 12.5 µg/mL (≈ 27.3 µM) | 25 µg/mL (≈ 54.6 µM) | inactive | 6.25 µg/mL (≈ 13.6 µM) | 24.6 mm | – |
| O=C(O)c1sc(-c2cn(-c3ccccc3)nc2-c2ccccc2)nc1-c1ccccc1 | 24.6 mm | 18.6 mm | 0.24 mL | 12.5 µg/mL (≈ 29.5 µM) | 23.6 mm | 0.28 mL | 67.76% | 83.81% | inactive | 84.04% | 87.37% | 0.39 mL | 0.3 mL | 25 µg/mL (≈ 59 µM) | 12.5 µg/mL (≈ 29.5 µM) | inactive | 50 µg/mL (≈ 118 µM) | 17.6 mm | – |
| O=C(O)c1sc(-c2cn(-c3ccccc3)nc2-c2ccccc2)nc1-c1ccc(Cl)cc1 | 21 mm | 17.6 mm | 0.14 mL | 25 µg/mL (≈ 54.6 µM) | 20.6 mm | 0.2 mL | 82.64% | 88.43% | inactive | 88.29% | 87.38% | 0.21 mL | 0.22 mL | 50 µg/mL (≈ 109 µM) | 25 µg/mL (≈ 54.6 µM) | inactive | 50 µg/mL (≈ 109 µM) | 17.6 mm | – |
